# In PMC11370232, “Repurposing of a library for high-content screening of inhibitors against Echinococcus granulosus” (Parasites & Vectors, 2024):
# Counter-ions that a name gives are not always drawn. Like-named read-outs stand apart in the source and are kept apart here.
# How the values were obtained:
# [1] = test system: lab-cultured E. granulosus microcysts (< 1 mm); assay: In vitro microcyst viability assay; assay type: cell-based, Echinococcus granulosus; conditions: 10 μM, 4 days
# Method: The in vitro E. granulosus culture progression was divided into two stages: an early stage in which the PSC culture was established by digesting echinococcal cysts isolated from naturally infected sheep livers, followed by a late stage with differentiation into cysts. CSCs were cultured from PSCs according to our previously described method. Briefly, the PSCs were incubated at 37 °C in glass culture vessels in RPMI 1640 medium (Invitrogen, San Diego, CA) containing 20% (v/v) FCS (Invitrogen), 0.45% (w/v) yeast extract, 0.4% (w/v) glucose, 100 IU/mL penicillin, and 100 μg/mL streptomycin placed on a solid-phase base prepared by heating newborn calf serum at 75 °C for 45 min (Smyth, 1990). Approximately 100 PSCs/mL were cultured, and the liquid medium was replaced every 3 days. After 56 days of cultivation, about 10% of the PSCs had developed into cysts with a thin laminated layer. The external diameter of the cysts was 328.6 ± 48 μm, and they appeared to the naked eye as clear capsular cysts. The cysts were carefully aspirated from the culture flasks and separated from dead or undeveloped PSCs by Pasteur pipetting. CSCs included microcysts and cysts: the diameter of the microcysts ranged from 300 μm to 1 mm, and the diameters of the cysts were greater than 1 mm.
# CSCs were cultured from PSCs utilizing the method described in a previous section. The in vitro cultured cysts (10 ± 5/well) or microcysts (10 ± 5/well) were seeded in 96-well plates before adding drugs. For the cyst/microcyst viability assay, cysts or microcysts were cultured in one well of a 96-well plate. After 1 day of culture, drugs were added to each well at a final concentration of 10 μM. For the cyst viability assay, the cyst survival rate was determined every 24 h after incubation with drugs, while for the microcyst viability assay, the survival rate of microcysts was determined at 4 days after drug incubation. The following equation was used for the death rate: death rate of CSCs (%) = 100 × (number of dead CSCs/number of total CSCs).
# [2] = test system: lab-cultured E. granulosus cysts (> 1 mm); assay: In vitro cyst viability assay; assay type: cell-based, Echinococcus granulosus; conditions: for inhibition at 10 µM: Echinococcus granulosus, 72 h, read-out: inhibitory rate against the cysts
# [3] = test system: HepG2; assay: Cytotoxicity in HepG2; conditions: read-out: Cytotoxicity in HepG2, CC50; HepG2
# [4] = test system: PI3Kγ; set-up: method as in SelleckChem library description; conditions: ref SelleckChem library description; cited from earlier work
# [5] = test system: PI3Kα; set-up: method as in SelleckChem library description; conditions: ref SelleckChem library description; cited from earlier work
# [6] = test system: PI3Kβ; set-up: method as in SelleckChem library description; conditions: ref SelleckChem library description; cited from earlier work
# [7] = in vitro; conditions: human
# [8] = test system: alpha- and beta-coronaviruses; conditions: cited from earlier work
# [9] = test system: N. fowleri; set-up: method as in earlier work; conditions: cited from earlier work
# [10] = test system: Chk1; set-up: method as in SelleckChem library description; conditions: ref SelleckChem library description, cited from earlier work
# [11] = test system: EGFR; set-up: method as in SelleckChem library description; conditions: ref SelleckChem library description; cited from earlier work
# [12] = test system: 20S proteasome; set-up: method as in SelleckChem library description; conditions: ref SelleckChem library description; read-out: IC50, chymotrypsin-like activity of purified 20S proteasome; cited from earlier work
# [13] = test system: ALK; set-up: method as in SelleckChem library description; conditions: ref SelleckChem library description, cited from earlier work
# [14] = Cytotoxicity in HepG2; conditions: human
# [15] = test system: p97; set-up: method as in SelleckChem library description; conditions: ref SelleckChem library description; cited from earlier work
# [16] = target: opioid receptor-like1 (ORL1) receptor; set-up: method as in SelleckChem library description; conditions: ref SelleckChem library description; cited from earlier work
# [17] = test system: E. multilocularis and E. granulosus s.s. PSCs, metacestode vesicles, and germinal layer cells; set-up: method as in PMID 37540716; conditions: cited from earlier work
# [18] = test system: E. multilocularis metacestodes; set-up: method as in PMID 32636148; conditions: screening cascade; cited from earlier work
# [19] = test system: E. multilocularis metacestode burden; set-up: method as in PMID 32636148; conditions: oral treatment, mice infected intraperitoneally with metacestodes or orally with eggs, compared with albendazole; cited from earlier work
# [20] = test system: E. multilocularis metacestodes; set-up: method as in PMID 30396011; conditions: cited from earlier work
# [21] = test system: HepG2
# [22] = test system: E. granulosus cysts collected from mice infected with microcysts; assay: Ex vivo cyst viability assay; assay type: cell-based, Echinococcus granulosus; conditions: for metacestodicidal effect on cysts ex vivo: 1 to 20 μM, 7 days
# Method: BALB/c mice were inoculated with cultured microcysts following the methodology outlined in a previous study; 10 weeks post-infection, the mice were euthanized, and cysts were harvested from the peritoneal cavity. The cysts were categorized as size-small cysts, with a diameter less than 5 mm and without PSCs, or large cysts, with a diameter greater than 5 mm and with PSCs. Subsequently, the cysts were incubated in bottles with RPMI 1640 culture medium enriched with 10% FCS and antibiotics.
# To determine the effect of omaveloxolone (HY-12212, MCE) and niclosamide (HY-B0497, MCE) on isolated cyst viability ex vivo, cysts collected from the peritoneal cavity of infected mice were incubated with different concentrations of drugs (1, 5, and 20 μM) for 7 days. The mortality rate of the cysts was recorded each day according to the following equation: death rate of cyst/microcyst (%) = [number of dead (cysts and microcysts)/number of total (cysts and microcysts)].
# [23] = test system: PTEN; set-up: method as in SelleckChem library description; conditions: ref SelleckChem library description; cited from earlier work
# [24] = test system: CE; set-up: method as in PMID 15708321, PMID 11776080; conditions: retrospective study; cited from earlier work
# [25] = test system: echinococcal cysts; set-up: method as in PMID 32279056; conditions: three-dose intraperitoneal regimen, 57 mg/kg once a day for 3 days; cited from earlier work
# [26] = test system: Trypanosoma brucei brucei GUTat 3.1; set-up: method as in SelleckChem library description; conditions: ref SelleckChem library description; cited from earlier work
# [27] = test system: Plasmodium falciparum K1a; set-up: method as in SelleckChem library description; conditions: ref SelleckChem library description; cited from earlier work
# [28] = test system: MALT1; set-up: method as in SelleckChem library description; conditions: ref SelleckChem library description; cited from earlier work
compound,measurement,setting,value
CC(=O)OC[C@H]1O[C@@H]([S-])[C@H](OC(C)=O)[C@@H](OC(C)=O)[C@@H]1OC(C)=O.CCP(CC)CC.[Au+] [Auranofin],effect on microcyst viability,[1],did not exert a significant inhibitory effect
same,inhibitory rate against the cysts,"[2]; 10 μM, day 3 post-treatment",100%
same,CC50,[3],13.4 µM
"COc1ccc(-c2ccc3ncc4c(c3c2)n(-c2ccc(N3CCNCC3)c(C(F)(F)F)c2)c(=O)n4C)cn1 [BGT226 (NVP-BGT226), BGT226]",IC50,[4],0.038 µM
same,IC50,[5],0.004 µM
same,IC50,[6],0.063 µM
COC(=O)[C@]12CCC(C)(C)C[C@H]1[C@H]1C(=O)C=C3[C@@]4(C)C=C(C#N)C(=O)C(C)(C)[C@@H]4CC[C@@]3(C)[C@]1(C)CC2 [Bardoxolone methyl],inhibition at 10 µM,"[2]; 10 μM, day 3 post-treatment",100%
same,CC50,[7],8.13 µM
same,coronavirus inhibition,[8],inhibitors of both alpha- and beta-coronaviruses
same,inhibition of N. fowleri growth,[9]; 24 h,approximately 85%
same,inhibition of N. fowleri growth,[9]; 48 h,97%
"CC#CC(=O)Nc1ccc2ncnc(Nc3cccc(Br)c3)c2c1 [CL-387785 (EKI-785), CL-387785]",IC50,[11],0.00037 µM
CC1=C(O)C(=O)C=C2C1=CC=C1[C@@]2(C)CC[C@@]2(C)[C@@H]3C[C@](C)(C(=O)O)CC[C@]3(C)CC[C@]12C [Celastrol],IC50,[12],2.5 µM
COc1ccc2c(c[n+](C)c3c4cc5c(cc4ccc23)OCO5)c1OC [Chelerythrine],effect on microcyst viability,[1],did not exert a significant inhibitory effect
same,inhibition at 10 µM,"[2]; 10 μM, day 3 post-treatment",100%
same,CC50,[14],32.7 µM
c1ccc(CNc2nc(NCc3ccccc3)c3ccccc3n2)cc1 [DBeQ],IC50,[15],1.5 µM
"CCC[C@H](NC(=O)/C(C#N)=C/c1cccc(Br)n1)c1ccccc1 [Degrasyn (WP1130), Degrasyn]",cyst morphology after treatment,"[2]; day 3 post-drug treatment, positive control",structural damage of the cyst
CCCCc1oc2ccc(NS(C)(=O)=O)cc2c1C(=O)c1ccc(OCCCN(CCCC)CCCC)cc1 [Dronedarone HCl],effect on microcyst viability,[1],did not exert a significant inhibitory effect
same,inhibition at 10 µM,"[2]; 10 μM, day 3 post-treatment",100%
same,CC50,[14]; HepG2 cells,15.5 µM
CCc1ccc(OCc2ccccc2C(=O)Nc2ccc3nc(C)cc(N)c3c2)cc1 [JTC-801],effect on microcyst viability,[1],did not exert a significant inhibitory effect
same,inhibition at 10 µM,"[2]; 10 μM, day 3 post-treatment",100%
same,CC50,[14]; HepG2 cells,7.43 µM
same,IC50,[16],0.094 µM
O=C(Nc1cccc(C(F)(F)F)c1)c1cc(Cl)ccc1O [MMV665807],activity against the parasites of both species in all four assays,[17],active
same,activity against E. multilocularis metacestodes in vitro,[18],active
same,effect on metacestode burden,[19],did not lead to a reduction of the metacestode burden
"Cc1[nH]c2cc(F)cc(F)c2c(=O)c1-c1ccc(Oc2ccc(OC(F)(F)F)cc2)cc1 [MMV671636, ELQ-400]",MIC50 against E. multilocularis metacestodes cultured in vitro,[20],0.02 µM
"CC(C)(C)[C@H]1CC[C@H](CC2=C(O)C(=O)c3ccccc3C2=O)CC1 [MMV689480, buparvaquone]",MIC50 against E. multilocularis metacestodes cultured in vitro,[20],2.87 µM
CC(C)(Cc1ccc2ccccc2c1)NC[C@@H](O)COc1cccc(Cl)c1C#N [NPS-2143],CC50,[21],15.3 µM
O=C(Nc1ccc([N+](=O)[O-])cc1Cl)c1cc(Cl)ccc1O [Niclosamide],activity against the parasites of both species in all four assays,[17],active
same,activity against E. multilocularis metacestodes in vitro,[18],active
same,effect on microcyst viability,[1],complete lethality
same,inhibition at 10 µM,"[2]; 10 μM, day 3 post-treatment",100%
same,day on which all cysts were killed (complete lethality),[22],7 days
same,metacestodicidal effect on cysts ex vivo,[22],obvious metacestodicidal effect
same,parasiticidal efficiency,"[22]; low incubation concentration, from day 5, ex vivo",approximately 80%
same,CC50,[7],6.14 µM
same,effect on metacestode burden,[19],did not lead to a reduction of the metacestode burden
CC1(C)CC[C@]2(NC(=O)C(C)(F)F)CC[C@]3(C)[C@H](C(=O)C=C4[C@@]5(C)C=C(C#N)C(=O)C(C)(C)[C@@H]5CC[C@]43C)[C@@H]2C1 [Omaveloxolone],effect on microcyst viability,[1],complete lethality
same,inhibition at 10 µM,[2],100%
same,day on which all cysts were killed (complete lethality),[22],≤ 5 days
same,reduction in cyst viability,"[22]; 5 μM, by day 2, ex vivo",50%
same,metacestodicidal effect on cysts ex vivo,[22],obvious metacestodicidal effect
same,CC50,[14]; HepG2 cells,9.33 µM
same,coronavirus inhibition,[8],inhibitors of both alpha- and beta-coronaviruses
OC1(c2ccc(Cl)c(C(F)(F)F)c2)CCN(CCCC(c2ccc(F)cc2)c2ccc(F)cc2)CC1 [Penfluridol],CC50,[14]; HepG2 cells,8.63 µM
CC(C)(C)C(=O)Nc1ccc2c(c1)C(=O)C(=O)c1ccccc1-2 [SF1670],IC50,[23],2 µM
CC(C)(C)c1ccc(C(O)CCCN2CCC(C(O)(c3ccccc3)c3ccccc3)CC2)cc1 (centres unmarked) [Terfenadine],CC50,[7],7.31 µM
CC(=O)Oc1cc(C)c(OC(C)=O)c2ccccc12 [Vitamin K4],CC50,[14]; HepG2 cells,> 100 µM
CCCSc1ccc2nc(NC(=O)OC)[nH]c2c1 [albendazole],patients who did not respond favorably to the medication,[24],about 40%
OC(c1cc(C(F)(F)F)nc2c(C(F)(F)F)cccc12)C1CCCCN1 (centres unmarked) [mefloquine],activity against E. multilocularis metacestodes in vitro,[18],active
COc1ccc2nc3cc(Cl)ccc3c(Nc3cc(CN4CCCC4)c(O)c(CN4CCCC4)c3)c2n1 [pyronaridine],cyst mortality,[25],100%
Elaiophylin,IC50,[26],0.45 µM
same,IC50,[27],0.36 µM
MI-2 [MI-2 (MALT1 inhibitor)],IC50,[28],5.84 µM
